“And” between values parts separate entries of the source, which are not always exact repeats. Identical values can stand only once.
Assays:
Type in all cases: cell-based, Chinese Hamster
Cell Line 1 [1] = assay: N-glycan oligosaccharide profiling, Cell Line 1 shake flasks (Example 1)
Description: Two recombinant Chinese Hamster Ovary (CHO) cell lines expressing two different humanized monoclonal antibodies (Antibody 1, Antibody 2) were evaluated in two different culture vessels (shaker flasks and laboratory scale bioreactors). Both cell lines were of CHO DUX-B11 origin based on a dhfr (dihydrofolate reductase) expression system. Both cell lines were cultured in the same chemically defined basal media (CDBM), with Cell Line 1 also utilizing a chemically-defined feed media (CDFM). Each of the respective media were supplemented with selected monosaccharides and oligosaccharides to evaluate their potential impact on the resulting N-glycan oligosaccharide profile. In preparing the cultures, the cell lines were serially expanded through separate seed train inoculums to generate enough cells for inoculation.
(§1) Purified antibodies subjected to additional analytical characterization were purified using MabSelect™ Protein A (GE Healthcare, Piscataway, N.J.) using a low pH, step elution gradient, followed by buffer exchange using Corning Lifesciences (Tewksbury, Mass.) Spin Concentrator X UF columns according to the manufacturers' recommended procedures.
(§2) Approximately 200 μg of Protein A purified samples from Cell Lines 1 and 2 were treated with N-glycanase at 37° C. overnight to remove the N-glycans from the protein. The protein was precipitated and the supernatant was taken for subsequent chemical derivatization of the reducing end of the released glycans with 2-aminobenzamide (2-AB) dye. Following the derivatization step, the excess label was removed using clean up cartridges and the samples were analyzed using normal phase HPLC with fluorescent detection. Mobile phase A was 100% acetonitrile and mobile phase B was 50 mM ammonium formate pH 4.4. The glycans were eluted from a polyamide column (Prozyme, Hayward, Calif.) using a shallow gradient. The labeled glycans were detected using a fluorescence detector with an excitation wavelength of 330 nm and an emission wavelength of 420 nm.
Cell Line 1 was cultured in shake flasks in fedbatch mode after an abbreviated seed train. Sucrose and tagatose were supplemented into chemically-defined basal and feed media at concentrations of 30, 50, and 70 mM, and compared to an unsupplemented control condition. The viable cell density (VCD), viability, and harvest titer results are shown in FIGS. 3A-3C and FIGS. 5A-5C for the sucrose, and tagatose conditions, respectively. Both sugars facilitated a slight decrease in VCD, with the higher concentrations also supporting the lowest peak VCD. […] As such, the upper threshold of sucrose or tagatose concentration should not be exceeded.

Cell Line 2 [2] = assay: Shake flask fed batch culture of Cell Line 2 (DVD 1), cell culture performance (Example 2); settings: for viable cell density over time: 1, 30 and 50 mM vs control
Description: (§3) Two recombinant Chinese Hamster Ovary (CHO) cell lines expressing two different recombinant glycoproteins were evaluated in two different cultures vessels (shaker flasks and 3 L laboratory scale bioreactors). Cell Line 1 expressed Antibody 1, Cell Line 2 expressed Dual Variable Domain Immunoglobulin 1 (DVD 1) and Cell Line 3 expressed Antibody 2. Antibodies 1 and 2 are IgG1 proteins, and DVD 1 is an immunoglobulin with two variable domains as documented previously (Wu C. et al., (2007) Nat. Biotechnol 25(11):1290-1297). All cell lines were of CHO DUX-B11 origin based on a dhfr (dihydrofolate reductase) expression system. All cell lines were cultured in the same chemically defined basal media. Cell lines 1 and 2 were fed with the same chemically-defined feed media, but Cell Line 1 was fed media that was formulated at a 50% higher concentration. Each of the respective media were supplemented with either sucrose or tagatose to evaluate their potential impact on the resulting N-glycan oligosaccharide profile. All sugars were purchased from Sigma-Aldrich (St. Louis, Mo.). In preparation of the cultures, the cell lines were serially expanded through separate seed train inoculums to generate enough cells for inoculation.
Viable cell density (VCD) and cell viability values were measured through trypan blue exclusion via Cedex automated cell counters (Roche Applied Science, Indianapolis, Ind.), glucose and lactate values were measured with a ABL-805 (Radiometer Medical, Denmark) blood gas analyzer. Offline pH, dissolved oxygen (DO), and pCO2 measurements were performed with an ABL-805 (Radiometer Medical, Denmark) blood gas analyzer. Osmolality was measured on a Multi-Osmette 2430 osmometer (Precision Systems, Natick, Mass.).
Antibody titers were measured from crude cell culture harvests on a Poros A™ (Life Technologies, Carlsbad, Calif.) affinity column using an Agilent (Santa Clara, Calif.) 1200 Series HPLC, or equivalent, operating with a low pH, step elution gradient with detection at 280 nm. Absolute concentrations were assigned with respect to reference standard calibration curves.
(§4) Experimental results are expressed as mean±SD for those results generated from at least three independent cultures. Experimental results are expressed as the measured value for those results generated from less than three independent cultures. Results were evaluated for statistical significance through 2-sided t-tests, with a requirement of p<0.05 relative to the unsupplemented control conditions.
(§5) Cell Line 2 was cultured in shake flasks in fed batch mode after an abbreviated seed train. Sucrose and tagatose were supplemented into chemically-defined basal and feed media at concentrations of 1, 30, and 50 mM, and process performance results were compared to unsupplemented control conditions. The viable cell density (VCD), viability, and harvest titer results are shown in FIGS. 15A-15C for the sucrose supplemented cultures and FIGS. 16A-16C for the tagatose supplemented cultures.

Cell Line 2 [3] = assay: N-glycan oligosaccharide profiling, Cell Line 2 (DVD 1) shake flasks (Example 2); settings: 50 mM supplement vs control
Description: as §3, §1, §2, §4, §5

Cell Line 1 [4] = assay: N-glycan oligosaccharide profiling, Cell Line 1 (Antibody 1) shake flasks (Example 2)
Description: as §3, §1, §2, §4
Cell Line 1 was cultured in shake flasks in fedbatch mode after an abbreviated seed train. Sucrose and tagatose were supplemented into chemically-defined basal and feed media at concentrations of 1, 10, 30, 50, and 70 mM, and compared to unsupplemented control conditions. The viable cell density (VCD), viability, and harvest titer results are shown in FIGS. 13A-13C for the sucrose supplemented cultures and FIGS. 14A-14C for the tagatose supplemented cultures.

[5] = 70 mM supplement, absolute % change vs control

| SMILES | cumulative increase in overall mannosylated N-glycans (Cell Line 1 [1]; 70 mM supplement vs control) | decrease in NGA2F species (Cell Line 1 [1]; 70 mM supplement vs control) | overall decrease in fucosylation level (Cell Line 1 [1]; 70 mM supplement vs control) | increase in Man 5 species (Cell Line 1 [1]; [5]) | increase in Man 6 species (Cell Line 1 [1]; [5]) | increase in Man 7 species (Cell Line 1 [1]; [5]) | harvest titer reduction (Cell Line 2 [2]; 50 mM vs control) | viable cell density over time (Cell Line 2 [2]) | cumulative increase in overall mannosylated N-glycans (Cell Line 2 [3]) | decrease in NA1F species (Cell Line 2 [3]) | decrease in NGA2F species (Cell Line 2 [3]) | increase in NGA2F-GlcNAc species (Cell Line 2 [3]) | overall decrease in the fucosylation level (Cell Line 2 [3]) | cumulative increase in overall mannosylated N-glycans (Cell Line 1 [4]; 70 mM supplement vs control) | drop in NGA2F species (Cell Line 1 [4]; 70 mM supplement vs control) | increase in Man 5 species (Cell Line 1 [4]; 70 mM supplement vs control) | increase in Man 6 species (Cell Line 1 [4]; 70 mM supplement vs control) | increase in Man 7 species (Cell Line 1 [4]; 70 mM supplement vs control) | increase in Man 8 species (Cell Line 1 [4]; 70 mM supplement vs control) | increase in NGA2F-GlcNAc species (Cell Line 1 [4]; 70 mM supplement vs control) | further results |
| --- | --- | --- | --- | --- | --- | --- | --- | --- | --- | --- | --- | --- | --- | --- | --- | --- | --- | --- | --- | --- | --- |
| OC[C@H]1O[C@@](CO)(O[C@H]2O[C@H](CO)[C@@H](O)[C@H](O)[C@H]2O)[C@@H](O)[C@@H]1O [sucrose] | 43% | 51% | 44% | 24% | 12% | 7% | 48% | remained approximately the same | 8% | 1% | 20% | 8% | 13% | 37% | 44% | 19% | 10% | 6% | 2% | 8% | increase in NGA2F-GlcNAc species (Cell Line 1 [1]; 70 mM supplement vs control): 7%; reduction in peak VCD (Cell Line 2 [2]; 50 mM vs control): at most 2×10^6 cells/mL; increase in Man 5 species (Cell Line 2 [3]): 7% and 3%; increase in Man 6 species (Cell Line 2 [3]): 1%; decrease in NA1F species (Cell Line 1 [4]; 70 mM supplement vs control): 1%; overall decrease in the fucosylation level (Cell Line 1 [4]; 70 mM supplement vs control): 37%; overall N-glycan core fucosylation (Cell Line 1 [4]; 10, 30, 50 and 70 mM): decreased in a statistically significant manner |
| O=C(CO)[C@@H](O)[C@@H](O)[C@H](O)CO [tagatose] | 20% | 30% | 23% | ≤ 10% | 6% | 3% | 38% | slightly higher compared to the control | 4% | 1% | 9% | 5% | 5% | 15% | 23% | 8% | 4% | 2% | 1% | 8% | increase in Man 8 species (Cell Line 1 [1]; [5]): 1%; relative harvest titer (Cell Line 2 [2]; 1 mM vs control): did not adversely impact relative harvest titer; viability after Day 8 (Cell Line 2 [2]; 30 mM and 50 mM vs control): remained higher than the control; harvest titer decrease (Cell Line 2 [2]; 30 mM vs control): 15%; overall decrease in the fucosylation level (Cell Line 1 [4]; 70 mM supplement vs control): 15%; N-glycan profiles compared to the control culture (Cell Line 1 [4]; 1, 10 and 30 mM): not practically different compared to the control culture |
